Measurements taken from patent publication US20230106760A1, “ANTIBACTERIAL AND ANTIFUNGAL POLYKETIDES FROM ENVIRONMENTAL AMYCOLATOPSIS SPP” (The United States of America, as represented by the …, priority 2020, published 2023).
≈ marks a conversion by molar mass, not a printed value.

Legend:
[1] = tested on: MRSA, methicillin-resistant Sa ATCC 43300; test: MIC, CLSI broth dilution susceptibility assay; assay type: cell-based, Staphylococcus aureus; settings: for Minimum Inhibitory Concentration (MIC): MRSA ATCC 43300
Procedure: (§1) The compounds were assayed against Gram-positive bacteria Staphylococcus aureus (Sa), methicillin-resistant Sa (MRSA), Enterococcus faecalis, and Vancomycin-resistant E. faecalis; the Gram-negative bacteria Escherichia coli and Pseudomonas aeruginosa; and the fungi Candida albicans and Amphotericin B-resistant C. albicans.
(§2) The growth conditions were adapted from the CLSI protocols for broth dilution susceptibility assays. A culture of S. aureus ATCC 29213 was diluted with MHII broth to an inoculum of—5×10^5 CFU/mL. Cultures were grown in 100 μL in round-bottom 96-well plates with increasing concentrations of test or control compound. Plates were gently rocked at 37° C. overnight and then 50 μL of each culture was spread onto TSA plates without antibiotic. The plates were incubated at 37° C. overnight and then examined for bacterial growth. Similarly, an inoculum of C. albicans ATCC 28517 or C. auris ATCC MYA-5001 was prepared in RPMI-1640 with 165 mM MOPS at 0.5×10^3-2.5×10^3 CFU/mL. Cultures were grown in 200 μL in round-bottom 96-well plates with increasing concentrations of test or control compound. Plates were gently rocked at 35° C. overnight and then 50 μL of each culture was spread onto Sabouraud dextrose agar (SDA) plates without compound. The plates were incubated at 35° C. overnight and then examined for fungal growth.

[2] = tested on: Candida albicans ATCC 28517; test: MIC, CLSI broth dilution susceptibility assay; assay type: cell-based; settings: for Minimum Inhibitory Concentration (MIC): Candida albicans ATCC 28517
Procedure: as §1, §2

[3] = tested on: Candida auris ATCC MYA-5001; test: MIC, CLSI broth dilution susceptibility assay; assay type: cell-based; settings: for Minimum Inhibitory Concentration (MIC): Candida auris ATCC MYA-5001
Procedure: as §1, §2

[4] = tested on: Enterococcus faecalis ATCC 29212; test: MIC, CLSI broth dilution susceptibility assay; assay type: cell-based; settings: for Minimum Inhibitory Concentration (MIC): Enterococcus faecalis ATCC 29212
Procedure: as §1, §2

[5] = tested on: Escherichia coli ATCC 25922; test: MIC, CLSI broth dilution susceptibility assay; assay type: cell-based
Procedure: as §1, §2

[6] = tested on: Pseudomonas aeruginosa ATCC 27853; test: MIC, CLSI broth dilution susceptibility assay; assay type: cell-based
Procedure: as §1, §2

[7] = tested on: Staphylococcus aureus (Sa) ATCC 29213; test: MIC, CLSI broth dilution susceptibility assay; assay type: cell-based; settings: for Minimum Inhibitory Concentration (MIC): Staphylococcus aureus ATCC 29213
Procedure: as §1, §2

[8] = tested on: Vancomycin-resistant E. faecalis ATCC 51299; test: MIC, CLSI broth dilution susceptibility assay; assay type: cell-based, Enterococcus faecalis
Procedure: as §1, §2

[9] = tested on: Amphotericin B-resistant C. albicans ATCC 200955; assay type: cell-based
Procedure: as §1, §2

S. aureus ATCC 29213 = test: Bactericidal activity: broth cultures with compound plated onto TSA without antibiotic; assay type: cell-based, Staphylococcus aureus; settings: for MIC: Staphylococcus aureus, ATCC29213
Procedure: as §2
(§3) After treatment with concentrations of compound 2 at or nearing the MIC, no viable organism could be recovered.
(§4) FIG. 19-20 show bactericidal and fungicidal activities of compound 2. FIG. 19A-C show the bactericidal activity of compound 2 against S. aureus ATCC 29213. […] FIG. 20A-B show the fungicidal activity of compound 2.

C. albicans ATCC 28517 = test: Fungicidal activity: broth cultures with compound plated onto SDA without compound; assay type: cell-based, Candida albicans
Procedure: as §2, §3, §4

C. auris ATCC MYA-5001 = test: as above; assay type: cell-based, Candida auris
Procedure: as §2, §3, §4

[10] = tested on: Amycolatopsis glycosyltransferase; test: Glycosyltransferase assay (substrate specificity); assay type: biochemical, Amycolatopsis sp. F10; settings: PBS, 500 μM UDP-glucose, 100 μM substrate, 30° C., 2 to 30 min; HPLC UV 254 nm or MS
Procedure: Glycosyltransferase expression vector cloning: An expression vector pET28b-gt was constructed by cloning the glycosyltransferase gene into pET28b (Novagen) with a C-terminal 6-His tag using the NEBuilder HiFi DNA Assembly kit (New England Biolabs). The glycosyltransferase gene was PCR amplified from F10 genomic DNA with primers that appended 5′ and 3′ overhangs homologous to the pET28b multiple cloning site. The linearized pET28b vector was prepared by restriction enzyme digestion with NcoI and XhoI. After cloning and confirmation by Sanger sequencing, pET28b-gt was transformed into E. coli BL21(DE3) for protein expression. The expression vector pET28b-gt-H15A was created from pET28b-gt with site-directed mutagenesis using overlapping primers and the QuikChange II kit.
Glycosyltransferase recombinant protein purification: An overnight culture of the glycosyltransferase expression strain in Luria-Bertani broth (LB) was used to inoculate 2 L LB with a 1:100 dilution (v/v). The culture was grown at 37° C. to OD600=0.5-0.7 and 0.1 mM isopropyl β-d-1-thiogalactopyranoside (IPTG) was added to induce protein expression for 4 hours. Cells were harvested by centrifugation, suspended in 20 mL phosphate-buffered saline (PBS) and stored at −80° C. For purification, the cells were thawed, lysed (lysozyme, DNase, MgCl2, phenylmethylsulfonyl fluoride (PMSF), and sonication), and cellular debris was removed by centrifugation. The glycosyltransferase was purified from the clarified lysate in two chromatographic steps on an AKTA Pure 25 FPLC. […] The eluted fractions containing the glycosyltransferase were confirmed by SDS-PAGE, pooled, and concentrated and buffer exchanged to remove imidazole in a 10000 Da MW centrigual filter device. The sample was run on a HiLoad Superdex 75 pg 16/600 size exclusion column with 50 mM HEPES pH 6.8/50 mM NaCl/10% glycerol. Protein purity was confirmed by SDS-PAGE. The purified glycosyltransferase was concentrated and flash frozen in aliquots at […]. […]

[11] = S. aureus ATCC 29213, FIG. 19 bactericidal experiment
[12] = at or nearing the MIC no viable organism could be recovered

SMILES: CC/C=C/C=C/C=C/C(O)CC1(O)OC(CC(O)C(O)C(O)C(O)C(O)C(C)C(O)C(C)C(O)CC(O)CC(O)CC(O)C(C)C(O)C(C)C(O)C(C)C(O)C(CC(C)CC(C)/C=C(C)/C(O)=C2/C(=O)C(C)N(C)C2=O)OC2OC(CO)C(O)C(O)C2O)C(O)C(O)C1O (stereo not shown) [Compound 1]
- Minimum Inhibitory Concentration (MIC) [1]: >128 micrograms/mL
- Minimum Inhibitory Concentration (MIC) [2]: >128 micrograms/mL
- Minimum Inhibitory Concentration (MIC) [3]: >128 micrograms/mL
- Minimum Inhibitory Concentration (MIC) [4]: >128 micrograms/mL
- Minimum Inhibitory Concentration (MIC) [5]: >128 micrograms/mL
- Minimum Inhibitory Concentration (MIC) [6]: >128 micrograms/mL
- Minimum Inhibitory Concentration (MIC) [7]: >128 micrograms/mL
- Minimum Inhibitory Concentration (MIC) [8]: >128 micrograms/mL
- Minimum Inhibitory Concentration (MIC) [9]: >128 micrograms/mL

SMILES: CC/C=C/C=C/C=C/C(O)CC1(O)OC(CC(O)C(O)C(O)C(O)C(O)C(C)C(O)C(C)C(O)CC(O)CC(O)CC(O)C(C)C(O)C(C)C(O)C(C)C(O)C(O)CC(C)CC(C)/C=C(C)/C(O)=C2/C(=O)C(C)N(C)C2=O)C(O)C(O)C1O (stereo not shown) [Compound 2]
- Minimum Inhibitory Concentration (MIC) [1]: 2 micrograms/mL
- Minimum Inhibitory Concentration (MIC) [2]: 8 micrograms/mL
- Minimum Inhibitory Concentration (MIC) [3]: 16 micrograms/mL
- Minimum Inhibitory Concentration (MIC) [4]: 8 micrograms/mL
- Minimum Inhibitory Concentration (MIC) [5]: >128 micrograms/mL
- Minimum Inhibitory Concentration (MIC) [6]: >128 micrograms/mL
- Minimum Inhibitory Concentration (MIC) [7]: 2 micrograms/mL
- Minimum Inhibitory Concentration (MIC) [8]: 8 micrograms/mL
- Minimum Inhibitory Concentration (MIC) [9]: 8 micrograms/mL
- MIC in the experiment (S. aureus ATCC 29213; [11]): 2 µg/mL (≈ 1.67 µM)
- Mode of action against S. aureus (bactericidal) (S. aureus ATCC 29213; [12]): bactericidal
- MIC in the experiment (C. albicans ATCC 28517; C. albicans ATCC 28517, FIG. 20A fungicidal experiment): 8 µg/mL (≈ 6.7 µM)
- Mode of action against C. albicans (fungicidal) (C. albicans ATCC 28517; [12]): fungicidal
- MIC in the experiment (C. auris ATCC MYA-5001; C. auris ATCC MYA-5001, FIG. 20B fungicidal experiment): 16 µg/mL (≈ 13.4 µM)
- Mode of action against C. auris (fungicidal) (C. auris ATCC MYA-5001; [12]): fungicidal
- Glycosyltransferase activity on the substance as substrate [10]: complete conversion

SMILES: C[C@@H]1[C@H](O)[C@@H](C)/C=C/C=C/C=C/C=C/C=C/C=C/C=C/[C@H](O[C@@H]2O[C@H](C)[C@@H](O)[C@H](N)[C@@H]2O)C[C@@H]2O[C@](O)(C[C@@H](O)C[C@@H](O)[C@H](O)CC[C@@H](O)C[C@@H](O)CC(=O)O[C@H]1C)C[C@H](O)[C@H]2C(=O)O [amphotericin B, reference compound]
- MIC, antibiotic control ([2]; C. albicans, footnote control): C. albicans: amphotericin B = 2 ug/mL

SMILES: O=C(N[C@H](CO)[C@H](O)c1ccc([N+](=O)[O-])cc1)C(Cl)Cl [chloramphenicol, reference compound]
- MIC (S. aureus ATCC 29213; [11]): 8 µg/mL (≈ 24.8 µM)

SMILES: CC[C@H]1OC(=O)[C@H](C)[C@@H](O[C@H]2C[C@@](C)(OC)[C@@H](O)[C@H](C)O2)[C@H](C)[C@@H](O[C@@H]2O[C@H](C)C[C@H](N(C)C)[C@H]2O)[C@](C)(O)C[C@@H](C)C(=O)[C@H](C)[C@@H](O)[C@]1(C)O [erythromycin]
- Glycosyltransferase activity on the substance as substrate [10]: no activity

SMILES: OC(Cn1cncn1)(Cn1cncn1)c1ccc(F)cc1F [fluconazole, reference compound]
- MIC, antibiotic control ([3]; C. auris, footnote control): C. auris: fluconazole = 1 ug/mL

SMILES: Cc1onc(-c2ccccc2)c1C(=O)N[C@@H]1C(=O)N2[C@@H]1SC(C)(C)[C@@H]2C(=O)O [oxacillin, reference compound]
- MIC, antibiotic control ([7]; S. aureus, footnote control): S. aureus: oxacillin = 0.25-0.5 ug/mL
- MIC (S. aureus ATCC 29213; [11]): 2 µg/mL (≈ 4.98 µM)

SMILES: CC[C@H]1OC(=O)C[C@@H](O)[C@H](C)[C@@H](O[C@@H]2O[C@H](C)[C@@H](O[C@H]3C[C@@](C)(O)[C@@H](O)[C@H](C)O3)[C@H](N(C)C)[C@H]2O)[C@@H](CC=O)C[C@@H](C)C(=O)/C=C/C(C)=C/[C@@H]1CO[C@@H]1O[C@H](C)[C@@H](O)[C@@H](OC)[C@H]1OC [tylosin]
- Glycosyltransferase activity on the substance as substrate [10]: no activity

SMILES: CN[C@H](CC(C)C)C(=O)N[C@H]1C(=O)N[C@@H](CC(N)=O)C(=O)N[C@H]2C(=O)N[C@H]3C(=O)N[C@H](C(=O)N[C@H](C(=O)O)c4cc(O)cc(O)c4-c4cc3ccc4O)[C@H](O)c3ccc(c(Cl)c3)Oc3cc2cc(c3O[C@@H]2O[C@H](CO)[C@@H](O)[C@H](O)[C@H]2O[C@H]2C[C@](C)(N)[C@H](O)[C@H](C)O2)Oc2ccc(cc2Cl)[C@H]1O [vancomycin, reference compound]
- MIC, antibiotic control ([1]; MRSA, footnote control): MRSA: vancomycin = 0.5-1 ug/mL
- MIC, antibiotic control ([4]; E. faecalis, footnote control): E. faecalis: vancomycin = 2 ug/mL
